Laboratory results from PMC10804683, “Identification of the pyridoxal 5′‐phosphate allosteric site in human pyridox(am)ine 5′‐phosphate oxidase” (Protein Science : A Publication of the Protein Society, 2024).
Changes are numbered by the printed parent chain. “Also recorded” adds a separate entry of the source.

Assays:
[1] = biological target: T1, human PNPO F48A/E50L/R161C/R258L variant (holo-enzyme) (Homo sapiens, UniProt Q9NVS9, E50L/F48A/R161C/R258L); test: PLP binding by fluorescence, F48A/E50L/R161C/R258L (35% FMN-saturated); conditions: text: titrated by exciting at 280 nm
T1 construct: a main form corresponding to the entire protein; made in house; host or cells: E. coli BL21(DE3)
T1 sequence (Q9NVS9 1-261 F48A/E50L/R161C/R258L): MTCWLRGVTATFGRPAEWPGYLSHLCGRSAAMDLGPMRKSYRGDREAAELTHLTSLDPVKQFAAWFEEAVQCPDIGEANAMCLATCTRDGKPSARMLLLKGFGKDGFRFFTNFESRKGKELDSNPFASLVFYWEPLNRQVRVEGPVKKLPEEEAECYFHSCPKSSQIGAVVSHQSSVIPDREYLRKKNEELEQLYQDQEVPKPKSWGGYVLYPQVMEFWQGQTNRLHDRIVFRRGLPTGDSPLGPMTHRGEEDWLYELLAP
Source text: PLP binding to PNPO can be detected and quantitatively measured using differential scanning fluorimetry (DSF) and also by measuring FMN fluorescence changes. We had previously attributed DSF changes to PLP binding at the active site, while FMN fluorescence changes were attributed to PLP binding at the allosteric site (Barile et al., [2019], [2020]). Previous experiments carried out with the PNPO R161C variant, affecting a residue that is essential for substrate binding and catalysis (and therefore also for PLP binding at the active site), confirms that DSF measurements only report PLP binding at the active site (Barile et al., [2021]; Table 1). […] We expected to observe no FMN fluorescence changes upon titration of the variants with PLP. However, this was not the case, and the dissociation constant values obtained by observing the FMN fluorescence emission were only up to threefold larger in the variants with respect to wild type PNPO (Figure 3). […] To check the second possibility, we measured intrinsic fluorescence changes of wild type and variant apo‐forms (i.e., without FMN) upon PLP titration. […]
Analyses of PLP binding, based on FMN fluorescence increase observed upon binding of PLP to PNPO, were performed as described in Barile et al. ([2020]). […] Emission spectra were recorded from […], with excitation and emission slits set at 3 and 5 nm, respectively. […]

[2] = biological target: T2, human PNPO F48A/E50L/R258L variant (Homo sapiens, UniProt Q9NVS9, E50L/F48A/R258L); test: PLP inhibition kinetics of PNP oxidation, triple variant; format: biochemical; conditions: Na-HEPES pH 7.6, 2 μM enzyme, PLP 0–16 μM
T2 construct: a main form corresponding to the entire protein; made in house; host or cells: E. coli BL21(DE3)
T2 sequence (Q9NVS9 1-261 F48A/E50L/R258L): T1 sequence (Q9NVS9 1-261 F48A/E50L/R161C/R258L) with C161R
Method: This is a general inhibition mechanism that takes into account the possibility of PLP binding to both the active and allosteric sites. PLP binding at the active site gives a complete, competitive inhibition, whereas PLP binding at the allosteric site yields a substrate‐enzyme‐PLP ternary complex that is still catalytically active, although k CAT is reduced by a coefficient whose value is around 0.15. A thorough inhibition kinetic characterization was carried out with the wild type, F48A, F48A/E50L/R258L, and F48A/E50L/H248N/R258L PNPO forms, so as to evaluate the effect of the variations on the allosteric properties of the enzyme. The initial velocity of PNP conversion into PLP was measured in Na‐HEPES buffer (in which PLP is allowed to accumulate) by varying substrate concentration at different, fixed exogenous PLP concentrations, using 2 μM enzyme. A series of saturation curves were obtained that were used to fit the Michaelis–Menten equation (Figure 5), acquiring apparent V MAX and K M values as a function of PLP concentration. […]
FIGURE 5 Characterization of PLP inhibition. Upper panels: The initial velocity of the reaction was measured with 2 μM wild type (a), and the F48A (b), F48A/E50L/R258L (c), and F48A/E50L/H248N/R258L (d) PNPO variants, varying PNP concentration while keeping exogenous PLP fixed at different concentrations (0, 0.25, 0.5, 1, 2, 4, 8, and 16 μM). […]

- type of inhibition of PNP oxidation by PLP [2]: pure competitive inhibition
SMILES: Cc1ncc(COP(=O)(O)O)c(C=O)c1O [PLP, pyridoxal 5′‐phosphate]
- PLP binding KD^FLUO [1]: no variation in the emitted fluorescence was observed; also recorded: No binding
